Drawing on patent EP2150534B1, “ISOQUINOLINONE DERIVATIVES AS NK3 ANTAGONISTS” (H. Lundbeck A/S, priority 2007, dated 2008), this text covers IC50 and Ki for six molecules.

For test [1], the target named is T1, human NK3 receptor (Homo sapiens, UniProt P29371).
T1 construct: expressed in transfected cells; membranes prepared from them
T1 sequence (P29371 1-465): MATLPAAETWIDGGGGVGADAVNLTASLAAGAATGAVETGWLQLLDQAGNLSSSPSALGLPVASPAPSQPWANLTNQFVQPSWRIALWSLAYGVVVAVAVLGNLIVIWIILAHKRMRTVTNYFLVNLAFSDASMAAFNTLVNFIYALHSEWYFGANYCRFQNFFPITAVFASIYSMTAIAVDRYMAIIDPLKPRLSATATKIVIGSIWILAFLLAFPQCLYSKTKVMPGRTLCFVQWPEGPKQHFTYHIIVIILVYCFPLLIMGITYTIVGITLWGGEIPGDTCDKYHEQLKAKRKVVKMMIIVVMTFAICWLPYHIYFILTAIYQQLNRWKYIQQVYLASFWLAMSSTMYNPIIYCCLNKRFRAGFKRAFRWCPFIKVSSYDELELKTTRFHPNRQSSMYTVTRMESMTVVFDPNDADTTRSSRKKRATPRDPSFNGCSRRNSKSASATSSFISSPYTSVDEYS
In words: NK3 receptor efficacy and potency assay (FLIPR Calcium 4 assay, BHK cells; agonist and antagonist mode versus NKB). Type of test: cell-based. Particulars: read-out: Potency cIC50. Here is the method:
BHK cells stably expressing the human NK3 receptor were seeded in 100 µl media in black walled clear-base 96-wells plates (Costar) aiming at a confluency of 95-100% at the day of assay. The assay was performed according to the FLIPR Calcium 4 Assay kit (Molecular Devices). At the day of the assay, the media was removed and the cells were washed once with the HBSS buffer (Hanks BSS buffer, pH 7,4 containing 20 mM Hepes) before 100 µl of a solution of the calcium assay reagent dissolved in the HBSS buffer containing 2,5 mM probinicid was added to the cells. The plates were incubated for 60 min at 34°C, 10% CO2 before use in the FLIPR for examination of fluorescence.
For efficacy and potency evaluation of compounds, these were diluted in HBSS buffer prior to test. For test of agonist activity, 25 µl of the diluted compound solution was added and the plate was analyzed for 5 minutes in the FLIPR. […] The plates were subsequently analyzed for 5 minutes before the assay was terminated. The maximal increase in fluorescence over background following each ligand addition was determined.

Test [2] has as its target T1, human NK3 receptor. Put plainly: NK3 receptor binding assay (SPA-based competition binding with 125I-NKB, membranes of BHK cells). Here is the method: Membranepreparation: BHK cells stably expressing the human NK3 receptor were seeded in harvesting plates in Dulbeccos MEM containing GlutaMax (862 mg/l), 1 mM sodium pyruvate, 10% fetal calf serum, 1% Pen/Strep, I mg/ml G418 and were grown at 34 °C in a humidified atmosphere containing 10% CO2. To increase receptor expression, 10 µM trichotatin A was added to the media 24 hours before harvest of the cells at a confluency of app 90%. Prior to the harvesting, the cells were washed twice with PBS without Mg^2+ og Ca^2+ and subsequently scrapped of in 10 ml PBS pr harvesting plate. The cells suspension were centrifuged at 1500xG in three minutes before resuspension in 15 mM Tris-HCl pH 7,5 buffer containing 2 mM MgCl2; 0,3 mM EDTA and 1 mM EGTA (buffer A). The cell suspention was homogenised and subsequently centrifuged at 40000xG in 30 minutes. The membrane-pellet was resuspended in buffer A containing 250 mM sucrose, alliquoted and stored at - 80°C.
Affinity assay description: The assay was performed as a SPA-based competition-binding assay in a 50 mM Tris pH 7.4 assay buffer containing 120 mM NaCl, 3 mM MnCl2, 40 µg/ml bacitracin, 2 µg/ml Chymostatin, 1 µg/ml Phosphoramidon and 4 µg/ml Leupeptin. App 0.02 nM ^125I-NKB was mixed with test compounds before addition of 4 µg of the homogenised NK3 membrane preparation and 0,025 mg SPA beads in a total volume of 60 µl. The assay plate was subsequently under agitation incubated for 90 min at RT. The plate was centrifugated 10 minutes at 500xG and counted in a topcounter 5 minuttes pr well.
The non-specific binding constituted app 5 % of the total binding.
Data points were expressed in percent of the specific binding of ^125I-NKB and the IC50 values (concentration causing 50 percent inhibition of ^125I-NKB specific binding) were determined by non-linear regression analysis using a sigmoidal variable slope curve fitting. The dissociation constant (Ki) were calculated from the Cheng Prusoff equation (Ki = IG50/(1+(L/KD))), where the concentration of free radioligand L is approximated to the concentration of added ^125I-NKB in the assay (app 0,02 nM).
The KD of ^125I-NKB was determined to be 0,7 nM from three independent saturation assays each performed with duplicate determinations. Bmax was app 2 pmol/mg.

[3] abbreviates: table of Example 10, affinity obtained as described in Example 9, read-out: Affinity Ki.

Read-outs that look alike come from different tables or passages of the source.

Turning to `CC[C@H](NC(=O)c1c(CN2CCC3(CC2)OCCO3)n(-c2ccccc2)c(=O)c2ccccc12)c1ccccc1` [Example 2u, 3-(1,4-Dioxa-8-aza-spiro[4.5]dec-8-ylmethyl)-1-oxo-2-phenyl-1,2-dihydro-isoquinoline-4-carboxylic acid ((S)-1-phenyl-propyl)-amide], the IC50 on human NK3 receptor [1] was determined as 96 nM. Also, at human NK3 receptor [2] (setting [3]), the Ki (as a rule, the dissociation constant of the complex between target and ligand, obtained from inhibition or displacement) was determined as 90 nM.
Consider `CC[C@H](NC(=O)c1c(CN2CCCC2=O)n(-c2ccccc2)c(=O)c2ccccc12)c1ccccc1` [Example 3a, 1-Oxo-3-(2-oxo-pyrrolidin-1-ylmethyl)-2-phenyl-1,2-dihydro-isoquiline-4-carboxylic acid ((S)-1-phenyl-propyl)-amide], for which the IC50 at human NK3 receptor [1] is 270 nM. Besides, the Ki was 72 nM at human NK3 receptor [2] (Ki for the NK3 receptor, table of Example 9, 125I-NKB competition binding, read-out: Ki) and 88 nM at human NK3 receptor [2] (setting [3]).
Take `CC[C@H](NC(=O)c1c(CN2CCCC2=O)n(-c2ccccc2)c(=O)c2c(Cl)cccc12)c1ccccc1` [Example 3b]: the IC50 on human NK3 receptor [1] was 47 nM. The Ki on human NK3 receptor [2] (setting [3]) turned out to be 32 nM.
In the same order, the values of `O=C(N[C@H](c1cccc(F)c1)C1CC1)c1c(CN2CCCC2=O)n(-c2ccccc2)c(=O)c2c(Cl)cccc12` [Example 3d, 8-Chloro-1-oxo-3-(2-oxo-pyrrolidin-1-ylmethyl)-2-phenyl-1,2-dihydro-isoquinoline-4-carboxylic acid [(S)-cyclopropyl-(3-fluoro-phenyl)-methyl]-amide] are 46 nM and 16 nM.
Taken in the same sequence, the figures for `Cc1c(C(=O)N[C@H](c2ccccc2)C2CC2)c2cccc(F)c2c(=O)n1-c1ccccc1` [Example 6c, 8-Fluoro-3-methyl-1-oxo-2-phenyl-1,2-dihydro-isoquinoline-4-carboxylic acid ((S)-cyclopropyl-phenyl-methyl)-amide] were 24 nM and 23 nM.
In the same order, the values of `CC(C)(C)N1CCC(Cc2c(C(=O)N[C@H](c3cccc(F)c3)C3CC3)c3cccc(Cl)c3c(=O)n2-c2ccccc2)CC1` [Example 8a, 3-(1-tert-Butyl-piperidin-4-ylmethyl)-8-chloro-1-oxo-2 phenyl-1,2-dihydro-isoquinoline-4-carboxylic acid [(S)-cyclopropyl-(3-fluoro-phenyl)-methyl]-amide] are 9.9 nM and 7 nM.
